{"source": "paper PMC10073911", "about": "“N-Arylacetamide derivatives of methyl 1,2-benzothiazine-3-carboxylate as potential drug candidates for urease inhibition” (Royal Society Open Science, 2023)", "key": {"urease": {"molecular_target": "urease (Canavalia ensiformis, UniProt P07374)", "sequence (P07374 whole entry, looked up)": "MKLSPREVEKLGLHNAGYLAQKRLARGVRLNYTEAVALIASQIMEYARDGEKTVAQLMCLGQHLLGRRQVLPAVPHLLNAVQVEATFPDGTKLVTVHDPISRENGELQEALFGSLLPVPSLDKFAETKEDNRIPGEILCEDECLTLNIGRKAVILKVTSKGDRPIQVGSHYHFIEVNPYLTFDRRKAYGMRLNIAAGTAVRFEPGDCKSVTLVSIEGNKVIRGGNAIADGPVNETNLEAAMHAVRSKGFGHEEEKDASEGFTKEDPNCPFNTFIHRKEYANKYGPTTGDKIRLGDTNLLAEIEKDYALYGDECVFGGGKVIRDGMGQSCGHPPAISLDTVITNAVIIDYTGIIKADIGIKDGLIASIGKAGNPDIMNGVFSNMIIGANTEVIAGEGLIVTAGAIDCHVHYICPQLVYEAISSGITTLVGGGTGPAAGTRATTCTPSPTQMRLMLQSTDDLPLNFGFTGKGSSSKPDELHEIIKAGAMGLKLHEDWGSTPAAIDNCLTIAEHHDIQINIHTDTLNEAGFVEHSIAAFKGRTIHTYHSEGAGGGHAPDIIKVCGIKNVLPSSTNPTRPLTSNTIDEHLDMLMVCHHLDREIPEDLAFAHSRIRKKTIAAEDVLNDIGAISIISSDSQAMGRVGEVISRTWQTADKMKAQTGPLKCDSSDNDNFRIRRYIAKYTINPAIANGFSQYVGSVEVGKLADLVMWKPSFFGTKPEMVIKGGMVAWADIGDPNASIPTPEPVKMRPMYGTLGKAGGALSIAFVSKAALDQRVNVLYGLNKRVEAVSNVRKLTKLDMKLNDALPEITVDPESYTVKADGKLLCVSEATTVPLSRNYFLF", "experiment": "biochemical", "settings": "indophenol method, urea substrate 100 mM, absorbance at 630 nm, triplicate"}, "[1]": {"settings": "urease inhibition IC50 ± s.e.m."}, "[2]": {"settings": "read-out: urease inhibition IC50 ± s.e.m."}}, "note": "“And” between values parts separate entries of the source, which are not always exact repeats. Identical values can stand only once. Like-named read-outs stand apart in the source and are kept apart here.", "data": [{"smiles": "COC(=O)C1=C(O)c2ccccc2S(=O)(=O)N1CC(=O)Nc1ccccc1", "note": "[5a, Methyl 4-hydroxy-2-(2-oxo-2-(phenylamino)ethyl)-2H-benzo[e][1,2]thiazine-3-carboxylate 1,1-dioxide]", "values": [{"measurement": "melting point", "result": "188 to 190", "unit": "°C"}, {"measurement": "IC50", "setting": "urease; [1]", "result": "10.1 ± 0.9", "unit": "µM"}]}, {"smiles": "COC(=O)C1=C(O)c2ccccc2S(=O)(=O)N1CC(=O)Nc1ccccc1OC", "note": "[5b, Methyl 4-hydroxy-2-(2-((2-methoxyphenyl)amino)-2-oxoethyl)-2H-benzo[e][1,2]thiazine-3-carboxylate 1,1-dioxide]", "values": [{"measurement": "IC50", "setting": "urease; [1]", "result": "14.9 ± 1.5", "unit": "µM"}]}, {"smiles": "COC(=O)C1=C(O)c2ccccc2S(=O)(=O)N1CC(=O)Nc1ccccc1C", "note": "[5c, Methyl 4-hydroxy-2-(2-oxo-2-(o-tolylamino)ethyl)-2H-benzo[e][1,2]thiazine-3-carboxylate 1,1-dioxide]", "values": [{"measurement": "melting point", "result": "172 to 174", "unit": "°C"}, {"measurement": "IC50", "setting": "urease; [1]", "result": "17.2 ± 1.1", "unit": "µM"}]}, {"smiles": "COC(=O)C1=C(O)c2ccccc2S(=O)(=O)N1CC(=O)Nc1ccccc1C(=O)OC", "note": "[5d, Methyl 4-hydroxy-2-(2-((2-(methoxycarbonyl)phenyl)amino)-2-oxoethyl)-2H-benzo[e][1,2]thiazine-3-carboxylate 1,1-dioxide]", "values": [{"measurement": "melting point", "result": "178 to 180", "unit": "°C"}, {"measurement": "IC50", "setting": "urease; [1]", "result": "14.1 ± 0.12", "unit": "µM"}]}, {"smiles": "COC(=O)C1=C(O)c2ccccc2S(=O)(=O)N1CC(=O)Nc1cccc(OC)c1", "note": "[5e, Methyl 4-hydroxy-2-(2-((3-methoxyphenyl)amino)-2-oxoethyl)-2H-benzo[e][1, 2]thiazine-3-carboxylate 1,1-dioxide]", "values": [{"measurement": "IC50", "setting": "urease; [2]", "result": "18.2 ± 1.69", "unit": "µM"}]}, {"smiles": "COC(=O)C1=C(O)c2ccccc2S(=O)(=O)N1CC(=O)Nc1cccc(C)c1", "note": "[5f, Methyl 4-hydroxy-2-(2-oxo-2-(m-tolylamino)ethyl)-2H-benzo[e][1,2]thiazine-3-carboxylate 1,1-dioxide]", "values": [{"measurement": "melting point", "result": "192 to 194", "unit": "°C"}, {"measurement": "IC50", "setting": "urease; [1]", "result": "15.5 ± 1.35", "unit": "µM"}]}, {"smiles": "COC(=O)C1=C(O)c2ccccc2S(=O)(=O)N1CC(=O)Nc1ccc(OC)cc1", "note": "[5g, Methyl 4-hydroxy-2-(2-((4-methoxyphenyl)amino)-2-oxoethyl)-2H-benzo[e][1,2]thiazine-3-carboxylate 1,1-dioxide]", "values": [{"measurement": "melting point", "result": "176 to 178", "unit": "°C"}, {"measurement": "IC50", "setting": "urease; [1]", "result": "20.4 ± 1.81", "unit": "µM"}]}, {"smiles": "COC(=O)C1=C(O)c2ccccc2S(=O)(=O)N1CC(=O)Nc1ccc(C)cc1", "note": "[5h, Methyl 4-hydroxy-2-(2-oxo-2-(p-tolylamino)ethyl)-2H-benzo[e][1,2]thiazine-3-carboxylate 1,1-dioxide]", "values": [{"measurement": "IC50", "setting": "urease; [1]", "result": "16.4 ± 1.4", "unit": "µM"}]}, {"smiles": "COC(=O)C1=C(O)c2ccccc2S(=O)(=O)N1CC(=O)Nc1ccc(Cl)cc1", "note": "[5i, Methyl 2-(2-((4-chlorophenyl)amino)-2-oxoethyl)-4-hydroxy-2H-benzo[e][1,2]thiazine-3-carboxylate 1,1-dioxide]", "values": [{"measurement": "IC50", "setting": "urease; [1]", "result": "20.7 ± 0.25", "unit": "µM"}]}, {"smiles": "COC(=O)C1=C(O)c2ccccc2S(=O)(=O)N1CC(=O)Nc1ccc([N+](=O)[O-])cc1", "note": "[5j, Methyl 4-hydroxy-2-(2-((4-nitrophenyl)amino)-2-oxoethyl)-2H-benzo[e][1,2]thiazine-3-carboxylate 1,1-dioxide]", "values": [{"measurement": "melting point", "result": "192 to 194", "unit": "°C"}, {"measurement": "IC50", "setting": "urease; [1]", "result": "17.1 ± 1.45", "unit": "µM"}]}, {"smiles": "CCOC(=O)c1ccc(NC(=O)CN2C(C(=O)OC)=C(O)c3ccccc3S2(=O)=O)cc1", "note": "[5k, Methyl 2-(2-((4-(ethoxycarbonyl)phenyl)amino)-2-oxoethyl)-4-hydroxy-2H-benzo[e][1,2]thiazine-3-carboxylate 1,1-dioxide]", "values": [{"measurement": "IC50", "setting": "urease; [1]", "result": "9.8 ± 0.023", "unit": "µM"}]}, {"smiles": "COC(=O)C1=C(O)c2ccccc2S(=O)(=O)N1CC(=O)Nc1ccc(NC(C)=O)cc1", "note": "[5l, Methyl 2-(2-((4-acetamidophenyl)amino)-2-oxoethyl)-4-hydroxy-2H-benzo[e][1,2]thiazine-3-carboxylate 1,1-dioxide]", "values": [{"measurement": "IC50", "setting": "urease; [1]", "result": "12.6 ± 0.1", "unit": "µM"}]}, {"smiles": "COC(=O)C1=C(O)c2ccccc2S(=O)(=O)N1CC(=O)Nc1cccc(Cl)c1Cl", "note": "[5m, Methyl 2-(2-((2,3-dichlorophenyl)amino)-2-oxoethyl)-4-hydroxy-2H-benzo[e][1,2]thiazine-3-carboxylate 1,1-dioxide]", "values": [{"measurement": "melting point", "result": "154 to 156", "unit": "°C"}, {"measurement": "IC50", "setting": "urease; [1]", "result": "14 µM and 14.1 µM"}]}, {"smiles": "COC(=O)C1=C(O)c2ccccc2S(=O)(=O)N1CC(=O)Nc1ccc(Cl)cc1Cl", "note": "[5n, Methyl 2-(2-((2,4-dichlorophenyl)amino)-2-oxoethyl)-4-hydroxy-2H-benzo[e][1,2]thiazine-3-carboxylate 1,1-dioxide]", "values": [{"measurement": "IC50", "setting": "urease; [1]", "result": "13 µM and 13.1 µM"}]}, {"smiles": "NC(N)=S", "note": "[thiourea, reference compound]", "values": [{"measurement": "IC50", "setting": "urease; [2]", "result": "22.3 ± 0.031", "unit": "µM"}]}]}
